Source: patent US20130203709A1, “ACYLSULFONAMIDES AND PROCESSES FOR PRODUCING THE SAME” (priority 2010, published 2013)
Where two headings read alike, the source gives them in different places.

Legend:
Bcl-XL = Bcl-XL (Homo sapiens, UniProt Q07817); assay: fluorescence polarization (FP) assay, disruption of the Bcl-XL/BH3 interaction; assay type: binding; conditions: for inhibition at 50 µM: 50 μM acylsulfonamide, disruption of Bcl-XL/BH3 interaction in FP assay, read-out: Percentage Inhibition at 50 μM acylsulfonamide concentrations; for inhibition at 100 µM: read-out: % Inhibition Bcl-XL
Chain of Bcl-XL (Q07817 whole entry): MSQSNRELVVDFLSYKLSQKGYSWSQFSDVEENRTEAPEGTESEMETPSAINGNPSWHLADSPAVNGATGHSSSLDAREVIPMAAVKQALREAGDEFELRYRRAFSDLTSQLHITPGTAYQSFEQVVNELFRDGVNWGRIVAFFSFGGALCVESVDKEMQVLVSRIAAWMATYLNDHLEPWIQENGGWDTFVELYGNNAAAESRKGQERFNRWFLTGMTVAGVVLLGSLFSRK

Mcl-1 = Mcl-1 (Homo sapiens, UniProt Q07820); assay: fluorescence polarization (FP) assay, disruption of the Mcl-1/BH3 interaction; assay type: binding; conditions: for inhibition at 100 µM: read-out: % Inhibition Mcl-1
Chain of Mcl-1 (Q07820 whole entry, the tested form may be a part): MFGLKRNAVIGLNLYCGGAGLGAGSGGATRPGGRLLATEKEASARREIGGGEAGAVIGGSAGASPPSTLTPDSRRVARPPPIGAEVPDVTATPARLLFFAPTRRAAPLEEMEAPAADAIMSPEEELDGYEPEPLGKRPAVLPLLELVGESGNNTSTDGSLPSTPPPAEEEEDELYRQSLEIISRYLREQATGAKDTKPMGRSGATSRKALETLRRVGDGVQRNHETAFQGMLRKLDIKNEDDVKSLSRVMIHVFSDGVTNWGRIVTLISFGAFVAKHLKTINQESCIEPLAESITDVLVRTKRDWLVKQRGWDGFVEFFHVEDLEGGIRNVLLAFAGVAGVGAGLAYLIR

[1] = reactive fragments (SZ, TA), 100 μM per FIG. 22 legend, FP assay

| SMILES | inhibition at 50 µM (Bcl-XL) [%] | inhibition at 100 µM (Bcl-XL; [1]) [%] | inhibition at 100 µM (Mcl-1; [1]) [%] | other results |
| --- | --- | --- | --- | --- |
| CN(CCc1ccccc1)Cc1ccc(S(=O)(=O)NC(=O)c2ccccc2)cc1 [SZ2TA1] | 2 |  |  |  |
| CC1(C)CCN(c2ccc(C(=O)NS(=O)(=O)c3ccc(CN(CSc4ccccc4)Cc4ccc5c(c4)OCO5)cc3)cc2)CC1 [SZ31TA2] |  |  |  | IC50 (Mcl-1; FP assay, read-out: IC50 against Mcl-1): 3.3 µM; ligand efficiency (Mcl-1; against Mcl-1): 0.159 |
| CC1(C)CCN(c2ccc(C(=O)NS(=O)(=O)c3ccc(NCCSc4ccccc4)c([N+](=O)[O-])c3)cc2)CC1 [SZ4TA2] | 100 |  |  | IC50 against Bcl-XL (in words) (Bcl-XL): in the nM range |
| Cc1nc(-c2ccccc2)sc1C(=O)NS(=O)(=O)c1ccc(CN(CCSc2ccccc2)Cc2ccc(S(=O)(=O)N=[N+]=[N-])cc2)cc1 [SZ9TA3] | 22 |  |  |  |
| O=C(NS(=O)(=O)c1ccc(CN(CCSc2ccccc2)Cc2c(F)cccc2Cl)cc1)c1ccccc1 [SZ15TA1] |  |  |  | fold less active than SZ31TA2 (Mcl-1; Mcl-1 PPIM activity relative to SZ31TA2): approximately 10 fold |
| [N-]=[N+]=NS(=O)(=O)CCN1CCN(Cc2ccc3c(c2)OCO3)CC1 [SZ25] |  | < 1 | < 1 |  |
| [N-]=[N+]=NS(=O)(=O)c1ccc(CN(CCSc2ccccc2)Cc2ccc3c(c2)OCO3)cc1 [SZ31] |  | < 1 | < 1 |  |
| CN(C)c1cccc2c(S(=O)(=O)N=[N+]=[N-])cccc12 [SZ21] |  | 1.1 | 49.3 ± 3.3 |  |
| COc1cc(OC)cc(C(=O)NS(=O)(=O)c2ccc(CN(CCSc3ccccc3)Cc3ccc(S(=O)(=O)N=[N+]=[N-])cc3)cc2)c1 [SZ9TA5] | 60 |  |  |  |
| [N-]=[N+]=NS(=O)(=O)CCN1CCc2ccccc2C1 [SZ23] |  | 3.3 ± 2.1 | 3.6 ± 5.2 |  |
| CC1(C)CCN(c2ccc(C(=O)NS(=O)(=O)c3ccc(CN(CCSc4ccccc4)Cc4ccc(S(=O)(=O)N=[N+]=[N-])cc4)cc3)cc2)CC1 [SZ9TA2] | 38 |  |  |  |
| [N-]=[N+]=NS(=O)(=O)c1ccc(CN(CCSc2ccccc2)Cc2ccc(S(=O)(=O)N=[N+]=[N-])cc2)cc1 [SZ9] |  |  |  | inhibition at 100 µM (Bcl-XL): 4.7 ± 4%; inhibition at 100 µM (Mcl-1): 13 ± 1.4% |
| [N-]=[N+]=NS(=O)(=O)c1ccc(CN(CCSc2ccccc2)Cc2ccc(S(=O)(=O)NC(=O)c3ccccc3)cc2)cc1 [SZ9TA1] | 80 |  |  |  |
| CC(=O)Nc1ccc(S(=O)(=O)NC(=O)c2cccc([N+](=O)[O-])c2)cc1 [SZ3TA6] | 0 |  |  |  |
| COc1cc2c(cc1OC)C(c1ccccc1)N(Cc1ccc(S(=O)(=O)N=[N+]=[N-])cc1)CC2 (stereo not shown) [SZ11] |  | < 1 | < 1 |  |
| CC(=O)Nc1ccc(S(=O)(=O)NC(=O)c2cccc3ccccc23)cc1 [SZ3TA7] | 0 |  |  |  |
| CC1(C)CCN(c2ccc(C(=O)NS(=O)(=O)c3ccc4ccc(S(=O)(=O)NCCSc5ccccc5)cc4c3)cc2)CC1 [SZ7TA2] | 76 |  |  |  |
| Cc1ccc(S(=O)(=O)NC(=O)c2ccccc2)cc1 [SZ5TA1] | 29 |  |  |  |
| [N-]=[N+]=NS(=O)(=O)c1ccc(NCCSc2ccccc2)c([N+](=O)[O-])c1 [SZ4] |  |  |  | inhibition at 100 µM (Bcl-XL): < 1%; inhibition at 100 µM (Mcl-1): 23.4 ± 14.9% |
| COc1ccc(S(=O)(=O)N=[N+]=[N-])cc1 [SZ19] |  |  |  | % Inhibition Bcl-XL (Bcl-XL; [1]): <1%; % Inhibition Mcl-1 (Mcl-1; [1]): <1% |

| SMILES | inhibition at 50 µM (Bcl-XL) [%] | inhibition at 100 µM (Bcl-XL; [1]) [%] | inhibition at 100 µM (Mcl-1; [1]) [%] | other results |
| --- | --- | --- | --- | --- |
| Cc1ccc(S(=O)(=O)NC(=O)c2ccc(N3CCC(C)(C)CC3)cc2)cc1 [SZ5TA2] | 28 |  |  |  |
| Cc1nc(-c2ccccc2)sc1C(=O)O [TA3] |  | < 1 | 1.4 ± 3.6 |  |
| Cc1ccc(S(=O)(=O)N=[N+]=[N-])cc1 [SZ5] |  |  |  | % Inhibition Bcl-XL (Bcl-XL; [1]): 2.3 ± 1.1%; % Inhibition Mcl-1 (Mcl-1; [1]): 1.2 ± 7.9% |
| CC(=O)Nc1ccc(S(=O)(=O)NC(=O)c2ccc(OC(F)(F)F)cc2)cc1 [SZ3TA8] | 0 |  |  |  |
| COc1cc2c(cc1OC)C(c1ccccc1)N(CC(=O)O)CC2 (stereo not shown) [TA4] |  | < 1 | 1.5 ± 0.7 |  |
| COc1cc2c(cc1OC)C(c1ccccc1)N(CCS(=O)(=O)N=[N+]=[N-])CC2 (stereo not shown) [SZ27] |  | 4 ± 0.1 | 13.9 ± 0.05 |  |
| [N-]=[N+]=NS(=O)(=O)CCN(CCSc1ccccc1)Cc1ccc2c(c1)OCO2 [SZ28] |  | < 1 | < 1 |  |
| O=C(NS(=O)(=O)c1ccc(NCCSc2ccccc2)c([N+](=O)[O-])c1)c1ccccc1 [SZ4TA1] | 14 |  |  |  |
| COc1cc2c(cc1OC)C(c1ccccc1)N(CC(=O)NS(=O)(=O)c1ccc(CN(C)CCc3ccccc3)cc1)CC2 (stereo not shown) [SZ2TA4] | 25 |  |  |  |
| COc1cc(OC)cc(C(=O)O)c1 [TA5] |  | < 1 | 1.3 ± 13.4 |  |
| [N-]=[N+]=NS(=O)(=O)CCN1CCCC2CCCCC21 (stereo not shown) [SZ22] |  | < 1 | 1.2 ± 1.2 |  |
| [N-]=[N+]=NS(=O)(=O)c1ccc(COc2ccc3c(=O)cc(-c4ccccc4)oc3c2)cc1 [SZ14] |  | 7.9 ± 5.8 | 2.1 ± 3.3 |  |
| CN(CCc1ccccc1)Cc1ccc(S(=O)(=O)NC(=O)c2ccc(N3CCC(C)(C)CC3)cc2)cc1 [SZ2TA2] | 9 |  |  |  |
| Cc1ccccc1S(=O)(=O)N=[N+]=[N-] [SZ20] |  |  |  | % Inhibition Bcl-XL (Bcl-XL; [1]): 1.4 ± 1.6%; % Inhibition Mcl-1 (Mcl-1; [1]): 6.2 ± 2.1% |
| [N-]=[N+]=NS(=O)(=O)c1ccc(-c2ccc(C(F)(F)F)cc2)cc1 [SZ16B] |  | 1.1 ± 1.2 | 1.3 ± 2.4 |  |
| O=C(NS(=O)(=O)c1ccc(CN(CSc2ccccc2)Cc2ccc3c(c2)OCO3)cc1)c1ccc(OC(F)(F)F)cc1 [SZ31TA8] |  |  |  | selectivity index (Mcl-1; calculated, Mcl-1 over Bcl-XL): 19 |
| COc1cccc(CN(CCSc2ccccc2)Cc2ccc(S(=O)(=O)N=[N+]=[N-])cc2)c1 [SZ17] |  | 2.6 ± 7.8 | 4 ± 1.6 |  |
| CC1(C)CCN(c2ccc(C(=O)O)cc2)CC1 [TA2] |  | < 1 | 6.8 ± 6.7 |  |
| [N-]=[N+]=NS(=O)(=O)CCN(Cc1ccccc1)Cc1ccccc1 [SZ26] |  | < 1 | < 1 |  |
| Cc1ccc(-c2ccc(C(=O)O)cc2)cc1 [SK_2_170] |  | 7 ± 13 | 6.8 ± 1.3 |  |

| SMILES | inhibition at 50 µM (Bcl-XL) [%] | inhibition at 100 µM (Bcl-XL; [1]) [%] | inhibition at 100 µM (Mcl-1; [1]) [%] | other results |
| --- | --- | --- | --- | --- |
| O=C(O)c1cccc2ccccc12 [TA7] |  | < 1 | 2.4 ± 6.8 |  |
| O=C(O)c1ccc(OC(F)(F)F)cc1 [TA8] |  | 4 ± 1.2 | 3.6 ± 12.7 |  |
| [N-]=[N+]=NS(=O)(=O)c1ccc(CN(CCSc2ccccc2)Cc2c(F)cccc2Cl)cc1 [SZ15] |  | 10 ± 0.9 | 25.1 ± 0.7 |  |
| [N-]=[N+]=NS(=O)(=O)c1ccc(CNc2cccc([N+](=O)[O-])c2)cc1 [SZ12] |  | < 1 | < 1 |  |
| O=C(O)c1ccno1 [TA10] |  | 2 ± 1.7 | < 1 |  |
| CC(=O)Nc1ccc(S(=O)(=O)NC(=O)c2ccco2)cc1 [SZ3TA9] | 0 |  |  |  |
| CCN(CC)c1ccc(CNc2ccc(S(=O)(=O)N=[N+]=[N-])cc2)cc1 [SZ30] |  | < 1 | < 1 |  |
| [N-]=[N+]=NS(=O)(=O)c1ccc(Cl)cc1 [SZ18] |  |  |  | % Inhibition Bcl-XL (Bcl-XL; [1]): <1%; % Inhibition Mcl-1 (Mcl-1; [1]): <1% |
| [N-]=[N+]=NS(=O)(=O)c1ccc2ccc(S(=O)(=O)NCCSc3ccccc3)cc2c1 [SZ6] |  | 4.6 ± 4.7 | 3.4 ± 0.2 |  |
| Cc1nc(-c2ccccc2)sc1C(=O)NS(=O)(=O)c1ccc(CN2CCN(c3ccccc3)CC2)cc1 [SZ1TA3] | 6 |  |  |  |
| CC(=O)Nc1ccc(S(=O)(=O)NC(=O)c2ccccc2)cc1 [SZ3TA1] | 0 |  |  |  |
| Cc1nc(-c2ccccc2)sc1C(=O)NS(=O)(=O)c1ccc(CN(C)CCc2ccccc2)cc1 [SZ2TA3] | 7 |  |  |  |
| O=C(O)c1cccc([N+](=O)[O-])c1 [TA6] |  | < 1 | < 1 |  |
| [N-]=[N+]=NS(=O)(=O)c1ccc(NCc2ccc(Br)cc2)cc1 [SZ29] |  |  |  | inhibition at 100 µM (Bcl-XL): < 1%; inhibition at 100 µM (Mcl-1): 5.7 ± 4.6% |
| CC(C)(C)c1ccc(-c2ccc(S(=O)(=O)N=[N+]=[N-])cc2)cc1 [SZ8] |  | 2.2 ± 0.7 | < 1 |  |
| [N-]=[N+]=NS(=O)(=O)c1ccc(CN(CCSc2ccccc2)Cc2ccc(S(N)(=O)=O)cc2)cc1 [SZ10] |  | 1.9 ± 3.8 | < 1 |  |
| [N-]=[N+]=NS(=O)(=O)c1ccc(COc2ccccc2[N+](=O)[O-])cc1 [SZ13] |  |  |  | % Inhibition Bcl-XL (Bcl-XL; [1]): 3.8 ± 4.1%; % Inhibition Mcl-1 (Mcl-1; [1]): <1% |
| O=C(O)c1ccco1 [TA9] |  | < 1 | < 1 |  |
| [N-]=[N+]=NS(=O)(=O)CCN1CCC(Cc2ccccc2)CC1 [SZ24] |  | < 1 | 2.7 ± 7.5 |  |
| CC(=O)Nc1ccc(S(=O)(=O)N=[N+]=[N-])cc1 [SZ3] |  | 6.7 ± 4.5 | < 1 |  |
